Results reported in ChEMBL document CHEMBL3885861, “Open TG-GATES”.

Species: Rattus norvegicus
Assay: Open TG-GATES - Regimen: Single
Type: toxicity, organism-based, Sprague-Dawley
Set-up: regimen Single, gender Male, age 6 weeks
Conditions: in vivo, po, 0 mg/kg, route gavage, dose level Control; for APTT / Bas / Eos / Fbg / Hb / Ht / Lym / MCH / MCHC / MCV / Mono / Neu / Plat / RBC / Ret / WBC: tissue Blood; for KIDNEY_L / KIDNEY_R / KIDNEY_TOTAL: tissue Kidney; for LIVER: tissue Liver; for ALP / ALT / AST / BUN / CRE / Ca / Cl / DBIL / GLC / IP / K / LDH / Na / PL / RALB / TBIL / TC / TG / TP / gamma-GTP: tissue Plasma

## CC(=O)Oc1ccccc1C(=O)O [ASPIRIN]
3 h
  TERMINAL_BW: 221 g
  APTT: 17.5 s
  Bas: 0.2%
  Eos: 1.2%
  Fbg: 226.6 mg/dL
  Hb: 13.4 g/dL
  Ht: 37.1%
  Lym: 75.4%
  MCH: 22 pg
  MCHC: 36.1%
  MCV: 60.8 fL
  Mono: 2.2%
  Neu: 20%
  Plat: 118.6 x10_4/uL
  RBC: 611.4 x10_4/ul
  Ret: 8%
  WBC: 87.8 x10_2/uL
  KIDNEY_L: 1 g
  KIDNEY_R: 1 g
  KIDNEY_TOTAL: 2 g
  LIVER: 9.9 g
  ALP: 895.2 IU/L
  ALT: 34.8 IU/L
  AST: 72.4 IU/L
  BUN: 9.8 mg/dL
  CRE: 0.4 mg/dL
  Ca: 10.7 mg/dL
  Cl: 103.8 meq/L
  DBIL: 0.066 mg/dL
  GLC: 198.2 mg/dL
  IP: 9.6 mg/dL
  K: 3.9 meq/L
  LDH: 186.2 IU/L
  Na: 142.4 meq/L
  PL: 138.4 mg/dL
  RALB: 3.4 g/dL
  TBIL: 0.1 mg/dL
  TC: 77 mg/dL
  TG: 48.8 mg/dL
  TP: 5.5 g/dL
  gamma-GTP: 1.2 IU/L
6 h
  TERMINAL_BW: 217.3 g
  APTT: 17.7 s
  Bas: 0%
  Eos: 0.8%
  Fbg: 235 mg/dL
  Hb: 13.9 g/dL
  Ht: 38.3%
  Lym: 77.2%
  MCH: 22 pg
  MCHC: 36.3%
  MCV: 60.5 fL
  Mono: 2.4%
  Neu: 18.4%
  Plat: 131.2 x10_4/uL
  RBC: 632.8 x10_4/ul
  Ret: 7.8%
  WBC: 104.9 x10_2/uL
  KIDNEY_L: 0.9 g
  KIDNEY_R: 0.9 g
  KIDNEY_TOTAL: 1.9 g
  LIVER: 9 g
  ALP: 815 IU/L
  ALT: 32 IU/L
  AST: 68.4 IU/L
  BUN: 9 mg/dL
  CRE: 0.4 mg/dL
  Ca: 10.6 mg/dL
  Cl: 103.2 meq/L
  DBIL: 0.07 mg/dL
  GLC: 185.8 mg/dL
  IP: 9.5 mg/dL
  K: 3.8 meq/L
  LDH: 208.8 IU/L
  Na: 141.2 meq/L
  PL: 139.2 mg/dL
  RALB: 3.4 g/dL
  TBIL: 0.1 mg/dL
  TC: 80.4 mg/dL
  TG: 62.8 mg/dL
  TP: 5.5 g/dL
  gamma-GTP: 1 IU/L
9 h
  TERMINAL_BW: 214.9 g
  APTT: 17.3 s
  Bas: 0%
  Eos: 0.8%
  Fbg: 224 mg/dL
  Hb: 14 g/dL
  Ht: 38.7%
  Lym: 80.2%
  MCH: 22.2 pg
  MCHC: 36.3%
  MCV: 61.1 fL
  Mono: 2.4%
  Neu: 15.2%
  Plat: 121.8 x10_4/uL
  RBC: 632.8 x10_4/ul
  Ret: 8%
  WBC: 88.9 x10_2/uL
  KIDNEY_L: 0.9 g
  KIDNEY_R: 0.9 g
  KIDNEY_TOTAL: 1.8 g
  LIVER: 8.6 g
  ALP: 795.2 IU/L
  ALT: 31.2 IU/L
  AST: 64.8 IU/L
  BUN: 9.4 mg/dL
  CRE: 0.4 mg/dL
  Ca: 10.4 mg/dL
  Cl: 104 meq/L
  DBIL: 0.066 mg/dL
  GLC: 206.6 mg/dL
  IP: 10 mg/dL
  K: 3.8 meq/L
  LDH: 205.6 IU/L
  Na: 141.4 meq/L
  PL: 128.6 mg/dL
  RALB: 3.4 g/dL
  TBIL: 0.1 mg/dL
  TC: 69.2 mg/dL
  TG: 46.2 mg/dL
  TP: 5.6 g/dL
  gamma-GTP: 1.2 IU/L
24 h
  TERMINAL_BW: 234.6 g
  APTT: 18.4 s
  Bas: 0.8%
  Eos: 1%
  Fbg: 222.8 mg/dL
  Hb: 13.8 g/dL
  Ht: 37.7%
  Lym: 77.2%
  MCH: 22.6 pg
  MCHC: 36.6%
  MCV: 61.7 fL
  Mono: 2.8%
  Neu: 17.8%
  Plat: 132 x10_4/uL
  RBC: 611.8 x10_4/ul
  Ret: 7.1%
  WBC: 109.6 x10_2/uL
  KIDNEY_L: 1 g
  KIDNEY_R: 1 g
  KIDNEY_TOTAL: 2 g
  ALP: 1023.4 IU/L
  ALT: 39 IU/L
  AST: 72.4 IU/L
  BUN: 15.8 mg/dL
  CRE: 0.4 mg/dL
  Ca: 10.6 mg/dL
  Cl: 103.6 meq/L
  DBIL: 0.062 mg/dL
  GLC: 204.2 mg/dL
  IP: 7.8 mg/dL
  K: 3.9 meq/L
  LDH: 207.2 IU/L
  Na: 141.2 meq/L
  PL: 153.4 mg/dL
  RALB: 3.5 g/dL
  TBIL: 0.1 mg/dL
  TC: 74 mg/dL
  TG: 124.4 mg/dL
  TP: 5.6 g/dL
  gamma-GTP: 1.2 IU/L
